Assay results reported in ChEMBL document CHEMBL1150014, “DISCOVERY OF A NOVEL CLASS OF BK CHANNEL OPENERS: ENANTIOSPECIFIC SYNTHESIS AND BK CHANNEL OPENING ACTIVITY OF 3-(5-CHLORO-2-HYDROXYPHENYL)-1,3-DIHYDRO-3-HYDROXY-6-(TRIFLUOROMETHYL)-2H-INDOL-2-ONE” (Bioorg Med Chem Lett, 1997).

biological target: Calcium-activated potassium channel subunit alpha-1 (Homo sapiens) (UniProt Q12791); test: Effect on outward K+ current using two-electrode voltage clamp recording from Xenopus laevis oocyte expressing cloned hSlo at 20 uM; type: functional
Sequence (Q12791 whole entry): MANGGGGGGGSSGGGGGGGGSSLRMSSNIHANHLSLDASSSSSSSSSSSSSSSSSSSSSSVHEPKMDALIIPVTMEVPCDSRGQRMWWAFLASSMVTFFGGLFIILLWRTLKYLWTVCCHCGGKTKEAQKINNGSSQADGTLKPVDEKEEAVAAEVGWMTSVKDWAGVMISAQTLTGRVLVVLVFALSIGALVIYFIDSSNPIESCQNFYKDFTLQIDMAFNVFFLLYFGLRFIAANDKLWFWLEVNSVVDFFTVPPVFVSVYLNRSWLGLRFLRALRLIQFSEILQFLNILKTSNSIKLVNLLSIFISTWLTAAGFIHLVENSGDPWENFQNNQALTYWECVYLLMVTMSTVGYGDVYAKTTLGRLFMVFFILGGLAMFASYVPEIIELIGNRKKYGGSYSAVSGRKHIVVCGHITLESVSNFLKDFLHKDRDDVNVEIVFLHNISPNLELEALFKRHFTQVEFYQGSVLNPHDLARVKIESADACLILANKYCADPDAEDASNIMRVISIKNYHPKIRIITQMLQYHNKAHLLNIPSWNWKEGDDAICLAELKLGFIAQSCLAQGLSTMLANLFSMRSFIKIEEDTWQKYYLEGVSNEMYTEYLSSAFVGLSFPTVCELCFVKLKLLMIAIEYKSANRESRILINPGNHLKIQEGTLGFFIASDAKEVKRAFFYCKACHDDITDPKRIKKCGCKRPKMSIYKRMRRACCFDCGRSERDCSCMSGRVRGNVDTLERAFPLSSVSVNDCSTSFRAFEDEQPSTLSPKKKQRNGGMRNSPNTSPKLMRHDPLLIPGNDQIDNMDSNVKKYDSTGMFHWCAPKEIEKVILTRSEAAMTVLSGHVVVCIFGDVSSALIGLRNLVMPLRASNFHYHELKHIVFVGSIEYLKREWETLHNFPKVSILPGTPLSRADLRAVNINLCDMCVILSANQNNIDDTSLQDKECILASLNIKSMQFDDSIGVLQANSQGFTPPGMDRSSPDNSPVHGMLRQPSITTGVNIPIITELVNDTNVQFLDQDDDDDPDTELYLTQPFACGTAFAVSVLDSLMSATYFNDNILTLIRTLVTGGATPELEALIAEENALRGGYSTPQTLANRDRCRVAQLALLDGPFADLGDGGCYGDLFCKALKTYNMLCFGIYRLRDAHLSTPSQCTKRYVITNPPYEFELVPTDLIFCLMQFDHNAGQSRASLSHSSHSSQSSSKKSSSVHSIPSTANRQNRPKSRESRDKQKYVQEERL

Question: How did the Control turn out when `COc1ccc(Cl)cc1C1(O)C(=O)Nc2cc(C(F)(F)F)ccc21` (racemic) was run?
Answer: Its Control is 120%.

Question: `O=C1Nc2cc(C(F)(F)F)ccc2C1(O)c1cccc(Cl)c1` (racemic) was tested. Which Control did it give?
Answer: Its Control is 96.7%.

Question: With `COc1ccc(Cl)cc1[C@]1(O)C(=O)Nc2cc(C(F)(F)F)ccc21` (stereo in doubt; (+)-4c) as the compound, how does the Control read?
Answer: Its Control is 117%.

Question: Which Control does the source give for `COc1ccc(Cl)cc1[C@]1(O)C(=O)Nc2cc(C(F)(F)F)ccc21` (stereo in doubt; (-)-4c) here?
Answer: The Control was 116%.

biological target: Calcium-activated potassium channel subunit alpha-1 (Mus musculus) (UniProt Q08460); test: Effect on outward K+ current using two-electrode voltage clamp recording from Xenopus laevis oocyte expressing cloned mSlo at 20 uM; type: functional
Sequence (Q08460 whole entry): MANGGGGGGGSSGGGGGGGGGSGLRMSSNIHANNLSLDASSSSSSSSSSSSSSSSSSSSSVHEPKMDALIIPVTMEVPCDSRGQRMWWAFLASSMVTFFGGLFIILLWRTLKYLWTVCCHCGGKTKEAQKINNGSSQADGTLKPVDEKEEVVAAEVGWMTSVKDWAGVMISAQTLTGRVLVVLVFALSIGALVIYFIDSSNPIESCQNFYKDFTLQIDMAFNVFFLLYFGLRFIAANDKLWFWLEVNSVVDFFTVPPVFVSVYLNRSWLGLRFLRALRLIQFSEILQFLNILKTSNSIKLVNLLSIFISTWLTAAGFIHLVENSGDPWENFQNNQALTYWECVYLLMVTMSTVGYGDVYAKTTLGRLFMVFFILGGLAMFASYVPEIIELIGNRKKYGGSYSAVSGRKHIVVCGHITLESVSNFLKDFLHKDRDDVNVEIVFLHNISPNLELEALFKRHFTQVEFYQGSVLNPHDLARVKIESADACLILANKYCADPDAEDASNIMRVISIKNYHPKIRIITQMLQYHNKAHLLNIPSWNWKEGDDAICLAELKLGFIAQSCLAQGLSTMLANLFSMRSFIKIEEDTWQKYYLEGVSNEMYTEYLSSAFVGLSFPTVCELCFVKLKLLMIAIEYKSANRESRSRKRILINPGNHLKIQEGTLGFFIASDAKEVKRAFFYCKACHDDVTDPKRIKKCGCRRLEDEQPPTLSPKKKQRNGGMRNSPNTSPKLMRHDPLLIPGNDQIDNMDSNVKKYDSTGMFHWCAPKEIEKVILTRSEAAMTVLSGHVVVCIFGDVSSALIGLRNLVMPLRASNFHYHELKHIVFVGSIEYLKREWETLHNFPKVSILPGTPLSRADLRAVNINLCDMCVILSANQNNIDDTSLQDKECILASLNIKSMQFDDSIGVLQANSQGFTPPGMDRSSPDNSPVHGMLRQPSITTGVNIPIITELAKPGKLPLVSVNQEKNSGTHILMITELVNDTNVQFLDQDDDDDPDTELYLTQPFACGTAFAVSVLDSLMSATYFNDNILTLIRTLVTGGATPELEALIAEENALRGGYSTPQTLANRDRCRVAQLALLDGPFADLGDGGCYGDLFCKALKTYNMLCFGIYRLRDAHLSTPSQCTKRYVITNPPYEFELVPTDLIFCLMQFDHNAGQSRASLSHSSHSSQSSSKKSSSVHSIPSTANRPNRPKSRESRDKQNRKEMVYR

Question: `O=c1[nH]c2cc(C(F)(F)F)ccc2n1-c1cc(Cl)ccc1O` was tested. Which Control did it give?
Answer: The Control was 132%.

Question: For `O=C1Nc2cc(C(F)(F)F)ccc2C1(O)c1cc(Cl)ccc1O` (racemic), which Control is on record?
Answer: Its Control is 131%.

Question: For `O=C1Nc2cc(C(F)(F)F)ccc2C1(O)c1ccccc1O` (racemic), which Control is on record?
Answer: Its Control is 90.4%.

Question: `O=C1Nc2ccccc2C1(O)c1cc(Cl)ccc1O` (racemic) was tested. Which Control did it give?
Answer: Its Control is 95.3%.

Question: With `O=C1Nc2cc(C(F)(F)F)ccc2[C@@]1(O)c1cc(Cl)ccc1O` (stereo in doubt; (+)-4e) as the compound, how does the Control read?
Answer: Its Control is 124%.

Question: For `O=C1Nc2cc(C(F)(F)F)ccc2[C@@]1(O)c1cc(Cl)ccc1O` (stereo in doubt; (-)-4e), which Control is on record?
Answer: The Control was 141%.

biological target: Calcium-activated potassium channel subunit alpha-1 (Mus musculus) (UniProt Q08460); test: Effect on outward K+ current using two-electrode voltage clamp recording from Xenopus laevis oocyte expressing cloned mSlo at 30 uM; type: functional

Question: For `O=c1[nH]c2cc(C(F)(F)F)ccc2n1-c1cc(Cl)ccc1O`, which Control is on record?
Answer: Its Control is 148%.

Question: `O=C1Nc2cc(C(F)(F)F)ccc2C1(O)c1cc(Cl)ccc1O` (racemic) was tested. Which Control did it give?
Answer: Its Control is 201%.
